Assay results from patent US20120128705A1, “C6ORF167 PEPTIDES AND VACCINES CONTAINING THE SAME” (OncoTherapy Science, Inc., priority 2009, published 2012).
Ends that are not written are not given here.

Tests used:
[1] = test system: peptide-pulsed A24LCL; assay: IFN-gamma ELISPOT assay on CTLs induced with peptide (HLA-A*2402); format: cell-based, human; details: CTLs from HLA-A*2402 positive donor, 3 rounds of stimulation, day 21; vs control wells without peptide
Excerpt: Monocyte-derived dendritic cells (DCs) were used as antigen-presenting cells (APCs) to induce cytotoxic T lymphocyte (CTL) responses against peptides presented on human leukocyte antigen (HLA). DCs were generated in vitro as described elsewhere (Nakahara S et al., Cancer Res 2003 Jul. 15, 63(14): 4112-8). Specifically, peripheral blood mononuclear cells (PBMCs) isolated from a normal volunteer (HLA-A*2402 positive) by Ficoll-Plaque (Pharmacia) solution were separated by adherence to a plastic tissue culture dish (Becton Dickinson) so as to enrich them as the monocyte fraction. The monocyte-enriched population was cultured in the presence of 1,000 U/ml of granulocyte-macrophage colony-stimulating factor (GM-CSF) (R&D System) and 1,000 U/ml of interleukin (IL)-4 (R&D System) in AIM-V Medium (Invitrogen) containing 2% heat-inactivated autologous serum (AS). After 7 days of culture, the cytokine-induced DCs were pulsed with 20 micro-g/ml of each of the synthesized peptides in the presence of 3 micro-g/ml of beta 2-microglobulin for 3 hrs at 37 degrees C. in AIM-V Medium. The generated cells appeared to express DC-associated molecules, such as CD80, CD83, CD86 and HLA class II, on their cell surfaces (data not shown). These peptide-pulsed DCs were then inactivated by X-irradiation (20 Gy) and mixed at a 1:20 ratio with autologous CD8+ T cells, obtained by positive selection with CD8 positive Isolation Kit (Dynal). These cultures were set up in 48-well plates (Corning); each well contained 1.5×10^4 peptide-pulsed DCs, 3×10^5 CD8+ T cells and 10 ng/ml of IL-7 (R&D System) in 0.5 ml of AIM-V/2% AS medium. Three days later, these cultures were supplemented with IL-2 (CHIRON) to a final concentration of 20 IU/ml. On days 7 and 14, the T cells were further stimulated with the autologous peptide-pulsed DCs. The DCs were prepared each time by the same way described above. CTL was tested against peptide-pulsed A24LCL cells after the 3rd round of peptide stimulation on day 21 (Tanaka H et al., Br J Cancer 2001 Jan. 5, 84(1): 94-9; Umano Y et al., Br J Cancer 2001 Apr. 20, 84(8): 1052-7; Uchida N et al., Clin Cancer Res 2004 Dec. 15, 10(24): 8577-86; Suda T et al., Cancer Sci 2006 May, 97(5): 411-9; Watanabe T et al., Cancer Sci 2005 August, 96(8): 498-506).
(§1) To examine specific CTL activity, interferon (IFN)-gamma enzyme-linked immunospot (ELISPOT) assay and IFN-gamma enzyme-linked immunosorbent assay (ELISA) were performed. Specifically, peptide-pulsed A24LCL (1×10^4/well) was prepared as stimulator cells. Cultured cells in 48 wells were used as responder cells. IFN-gamma ELISPOT assay and IFN-gamma ELISA assay were performed under manufacture procedure.

[2] = test system: COS7 cells transfected with C6orf167 and HLA-A*2402; assay: Specific CTL activity against target cells exogenously expressing C6orf167 and HLA-A*2402; format: cell-based, African green monkey; details: for Specific CTL activity against control COS7 cells: COS7 transfected with either full length C6orf167 or HLA-A*2402 alone; for Specific CTL activity against COS7 cells expressing both C6orf167 and HLA-A*2402: CTL lines raised by the peptide as effector cells
Excerpt: The cDNA encoding an open reading frame of target genes or HLA-A*2402 was amplified by PCR. The PCR-amplified product was cloned into pCAGGS vector. The plasmids were transfected into COS7, which is the target genes and HLA-A24-negative cell line, using lipofectamine 2000 (Invitrogen) according to the manufacturer's recommended procedures. After 2 days from transfection, the transfected cells were harvested with versene (Invitrogen) and used as the target cells (5×10^4 cells/well) for CTL activity assay.
The established CTL lines raised against these peptides were examined for their ability to recognize target cells that endogenously express C6orf167 and HLA-A*2402 molecule. Specific CTL activity against COS7 cells which transfected with both the full length of C6orf167 and HLA-A*2402 molecule gene (a specific model for the target cells that exogenously express C6orf167 and HLA-A*2402 gene) was tested using the CTL lines raised by corresponding peptide as the effecter cells. COS7 cells transfected with either full length of C6orf167 genes or HLA-A*2402 were prepared as controls.

[3] = test system: peptide-pulsed A24LCL; assay: IFN-gamma ELISA assay of CTL lines (HLA-A*2402); format: cell-based, human; details: target cells pulsed with corresponding peptide vs without peptide pulse
Protocol: CTLs were expanded in culture using the method similar to the one described by Riddell et al. (Walter E A et al., N Engl J Med 1995 Oct. 19, 333(16): 1038-44; Riddell S R et al., Nat Med 1996 February, 2(2): 216-23). A total of 5×10^4 CTLs were suspended in 25 ml of AIM-V/5% AS medium with 2 kinds of human B-lymphoblastoid cell lines, inactivated by Mitomycin C, in the presence of 40 ng/ml of anti-CD3 monoclonal antibody (Pharmingen). One day after initiating the cultures, 120 IU/ml of IL-2 were added to the cultures. The cultures were fed with fresh AIM-V/5% AS medium containing 30 IU/ml of IL-2 on days 5, 8 and 11 (Tanaka H et al., Br J Cancer 2001 Jan. 5, 84(1): 94-9; Umano Y et al., Br J Cancer 2001 Apr. 20, 84(8): 1052-7; Uchida N et al., Clin Cancer Res 2004 Dec. 15, 10(24): 8577-86; Suda T et al., Cancer Sci 2006 May, 97(5): 411-9; Watanabe T et al., Cancer Sci 2005 August, 96(8): 498-506).
as §1

[4] = test system: peptide-pulsed A24LCL; assay: IFN-gamma ELISA assay of CTL clones (HLA-A*2402); format: cell-based, human; details: clones by limiting dilution; target cells pulsed with peptide
Protocol: The dilutions were made to have 0.3, 1, and 3 CTLs/well in 96 round-bottomed micro titer plate (Nalge Nunc International). CTLs were cultured with 1×10^4 cells/well of 2 kinds of human B-lymphoblastoid cell lines, 30 ng/ml of anti-CD3 antibody, and 125 U/ml of IL-2 in a total of […] of AIM-V Medium containing 5% AS. 50 micro-1/well of IL-2 were added to the medium 10 days later so to reach a final concentration of 125 U/ml IL-2. CTL activity was tested on the 14th day, and CTL clones were expanded using the same method as described above (Uchida N et al., Clin Cancer Res 2004 Dec. 15, 10(24): 8577-86; Suda T et al., Cancer Sci 2006 May, 97(5): 411-9; Watanabe T et al., Cancer Sci 2005 August, 96(8): 498-506).
as §1

Substance | Peptide specific CTL activity: IFN-gamma production by ELISPOT [1] | Specific CTL activity against control COS7 cells [2] | Specific CTL activity against COS7 cells expressing both C6orf167 and HLA-A*2402 [2] | IFN-gamma production of CTL lines by ELISA [3] | IFN-gamma production of CTL clones by ELISA [4]
IYIDgVQEVF (IYIDGVQEVF; not fully specified; printed as IYIDgVQEVF) [SEQ ID NO: 33] | potent IFN-gamma production | no significant specific CTL activity | potent CTL activity | potent IFN-gamma production | –
LVLEILYML [SEQ ID NO: 30] | potent IFN-gamma production | – | – | potent IFN-gamma production | Potent IFN-gamma productions
LYIGHLSEL [SEQ ID NO: 2] | potent IFN-gamma production | no significant specific CTL activity | potent CTL activity | potent IFN-gamma production | Potent IFN-gamma productions
MYLHCCLTL [SEQ ID NO: 4] | potent IFN-gamma production | – | – | potent IFN-gamma production | Potent IFN-gamma productions
NFFSLFLLL [SEQ ID NO: 16] | potent IFN-gamma production | – | – | potent IFN-gamma production | Potent IFN-gamma productions
RYYYQVYSI [SEQ ID NO: 9] | potent IFN-gamma production | no significant specific CTL activity | potent CTL activity | potent IFN-gamma production | Potent IFN-gamma productions
VYGHQFMNL [SEQ ID NO: 7] | potent IFN-gamma production | no significant specific CTL activity | potent CTL activity | potent IFN-gamma production | Potent IFN-gamma productions
